Data reported in US8232269B2, “Amide compounds useful in therapy” (Pfizer Inc., priority 2008, dated 2012).

What follows are compounds tested against T1, Progesterone Receptor (PR) (Homo sapiens, UniProt P06401) (assay: In vitro functional assay for progesterone receptor (PR) antagonists: inhibition of progesterone-induced alkaline phosphatase expression in T47D cells). Conditions: antagonist format, 5 nM progesterone, Ki calculated from IC50 with the Cheng-Prusoff equation.
T1 construct: endogenous in cells; host or cells: T47D human breast mammary carcinoma cells
T1 sequence (P06401 1-933): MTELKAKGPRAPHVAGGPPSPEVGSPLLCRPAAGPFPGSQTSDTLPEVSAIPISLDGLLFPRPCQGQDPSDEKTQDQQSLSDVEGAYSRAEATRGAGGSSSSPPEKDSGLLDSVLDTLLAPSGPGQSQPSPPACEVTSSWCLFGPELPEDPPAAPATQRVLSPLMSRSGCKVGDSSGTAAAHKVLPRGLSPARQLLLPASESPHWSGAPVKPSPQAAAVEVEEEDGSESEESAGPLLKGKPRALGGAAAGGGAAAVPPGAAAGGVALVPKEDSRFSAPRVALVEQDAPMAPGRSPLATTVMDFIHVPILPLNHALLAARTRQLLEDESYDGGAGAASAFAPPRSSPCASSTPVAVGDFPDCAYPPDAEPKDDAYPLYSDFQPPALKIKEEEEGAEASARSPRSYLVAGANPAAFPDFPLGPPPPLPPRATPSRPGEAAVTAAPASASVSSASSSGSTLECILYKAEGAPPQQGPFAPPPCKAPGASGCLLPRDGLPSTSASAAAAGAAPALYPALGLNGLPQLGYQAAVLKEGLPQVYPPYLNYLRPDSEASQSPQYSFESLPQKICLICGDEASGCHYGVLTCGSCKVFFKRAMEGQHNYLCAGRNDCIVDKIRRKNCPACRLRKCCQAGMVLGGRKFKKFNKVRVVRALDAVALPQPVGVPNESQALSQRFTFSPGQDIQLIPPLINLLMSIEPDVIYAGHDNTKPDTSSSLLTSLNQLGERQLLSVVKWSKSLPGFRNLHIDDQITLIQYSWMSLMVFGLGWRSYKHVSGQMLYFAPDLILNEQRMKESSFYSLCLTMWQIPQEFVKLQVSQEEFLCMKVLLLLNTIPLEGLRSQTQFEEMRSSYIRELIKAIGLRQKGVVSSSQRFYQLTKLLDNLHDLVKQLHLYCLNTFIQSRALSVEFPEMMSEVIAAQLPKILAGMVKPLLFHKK
Type: cell-based
From the text: 1.0 In vitro Functional Assay for Progesterone Receptor (PR) Antagonists, Agonists and Modulators
The assay for PR antagonism takes advantage of the extensively reported modulation of alkaline phosphatase (AP) expression in human breast T47D mammary carcinoma cells {Beck et al., D. P. (1993). The progesterone antagonist RU486 acquires agonist activity upon stimulation of cAMP signalling pathways. Proc Natl Acad Sci USA 90, 4441-4445; Fensome et al. (2002). New progesterone receptor antagonists: 3,3-disubstituted-5-aryloxindoles. Bioorg Med Chem Lett 12, 3487-3490; Zhang et al., (2002a). 6-Aryl-1,4-dihydro-benzo d1,3oxazin-2-ones: a novel class of potent, selective, and orally active nonsteroidal progesterone receptor antagonists. Journal of Medicinal Chemistry 45, 4379-4382; Zhang et al., (2003). Novel 6-aryl-1,4-dihydrobenzo d oxazine-2-thiones as potent, selective, and orally active nonsteroidal progesterone receptor agonists. Bioorganic & Medicinal Chemistry Letters 13, 1313-1316; Zhang et al., (2002b). Potent nonsteroidal progesterone receptor agonists: synthesis and SAR study of 6-aryl benzoxazines. Bioorganic & Medicinal Chemistry Letters 12, 787-790; Zhang, Z. et al., (2000). In vitro characterization of trimegestone: a new potent and selective progestin. Steroids 65, 637-643}. […] In the absence of progesterone any agonist activity is also observed as an induction of AP activity. By running the assay in two formats (+/−progesterone (P4)), compounds behaving as PR antagonists, agonists, partial agonists or modulators with mixed agonist/antagonist activity can be identified.
Briefly, T47D cells are grown by propagating in DMEM with phenol red+10% FCS+2 mM Glutamine at 37° C./5% CO2. At 70-80% confluence, the media is exchanged for phenol red free DMEM+5% CS-FCS (Assay media). Cells are incubated overnight in assay media then harvested and frozen in assay media containing 10% DMSO at 1.5e7 cells/mL in 2 mL aliquots using a Planer and immediately stored in liquid nitrogen. Vials are removed from liquid nitrogen storage and immediately thawed in a water bath at 37° C. The cell suspension is added dropwise to 20 mL of assay media, then the tube centrifuged at 1000 rpm for 4 minutes, the supernatant is discarded and the pellet re-suspended in 20 mL assay media. T47D cells are then plated at 8750 cells/well in 35 μL assay media in sufficient white solid 384 well TC plates for the assay. For the agonist format assay a further 10 μL of assay media is added to each well. These plates are then cultured for 3-6 hours at 37° C./5% CO2 before compound addition.
Test substances are prepared by in 100% DMSO, half log concentrations from 4 mM in 384 well plates 5 μL/well (referred to here as ‘grandmother plates’). Progesterone is 100 μM made up in ethanol and PBS (i.e. add 1 mL ethanol to progesterone initially to help dissolving) and stored in 0.5-1 mL aliquots at −20° C.
Using a multidrop (Thermolabsystems), 60 μL/well of buffer is added to a 384 well plate—this will be the ‘mother plate’. _Add 45 μL well buffer to grandmother plate using the multidrop (=400 μM 10% DMSO dilution). Mixed and spun to remove air bubbles. • 20 μL is taken from the grandmother plate (400 μM 10% DMSO) and added to the mother plate (=100 μM 2.5% DMSO). Mixed and spun to remove air bubbles Preparation of Max/Min:
Antagonist Min: (Checker Pattern on Plate Map) 1 μM RU-486 (FAC 0.1 μM) • 50 μL of 0.2 mM RU-486 • 10 mL Diluent Addition of Test Substance to Cell Plates • The PlateMate Plus was used to add 5 μL MAX/MIN to cell plates • Then 5 μL test substances are added from the mother plate (after removing max/min PlateMate tips: columns 1 and 24)
Addition of Agonist (5 nM Progesterone FAC) for Antagonist Format Only
25 nM progesterone in assay media is prepared from 100 μM stock (12.5 μL progesterone/50 mL media), from which 10 μL per well is transferred to the assay plate using the PlateMate Plus (already containing cells & compound). […]

SMILES	Ki [nM]
Cc1c(-c2ccc(C#N)cc2)nn(C2CCOC2)c1C(=O)NC[C@H](C)O (mixture of isomers) [Example 78, 3-(4-Cyanophenyl)-N-[(2S)-2-hydroxypropyl]-4-methyl-1-(tetrahydrofuran-3-yl)-1H-pyrazole-5-carboxamide]	71.6
CC(C)n1nc(-c2ccc(C#N)cc2)c(C2CC2)c1C(=O)NC1CCCOC1 (racemic) [Example 40, (+/−)-3-(4-Cyanophenyl)-4-cyclopropyl-1-isopropyl-N-(tetrahydro-2H-pyran-3-yl)-1H-pyrazole-5-carboxamide]	17.5
CC(C)n1nc(-c2ccc(C#N)cc2)c(C2CC2)c1C(=O)NC1CNC(=O)C1 (racemic) [Example 45, (+/−)-3-(4-Cyanophenyl)-4-cyclopropyl-1-isopropyl-N-[(3R)-5-oxopyrrolidin-3-yl]-1H-pyrazole-5-carboxamide]	104
Cc1c(-c2ccc(C#N)cc2)nn(C2CCOC2)c1C(=O)NC(C)C (racemic) [Example 77, 3-(4-Cyanophenyl)-N-isopropyl-4-methyl-1-(tetrahydrofuran-3-yl)-1H-pyrazole-5-carboxamide]	28.2
Cc1c(-c2ccc(C#N)cc2)nn(C2CCOC2)c1C(=O)NCC(C)(C)O (racemic) [Example 80, 3-(4-Cyanophenyl)-N-(2-hydroxy-2-methylpropyl)-4-methyl-1-(tetrahydrofuran-3-yl)-1H-pyrazole-5-carboxamide]	138
CCc1c(-c2ccc(C#N)cc2)nn(C(C)CC)c1C(=O)NCC1CC1 (racemic) [Example 101, (+/−)-1-sec-Butyl-3-(4-cyanophenyl)-N-(cyclopropylmethyl)-4-ethyl-1H-pyrazole-5-carboxamide]	7.67
CCc1c(-c2ccc(C#N)cc2)nn(C(C)CC)c1C(=O)NC1CC1 (racemic) [Example 104, (+/−)-1-sec-Butyl-3-(4-cyanophenyl)-N-cyclopropyl-4-ethyl-1H-pyrazole-5-carboxamide]	17.8
CCc1c(-c2ccc(C#N)cc2)nn(C(C)CC)c1C(=O)NCC(C)(C)O (racemic) [Example 106, 1-sec-Butyl-3-(4-cyanophenyl)-4-ethyl-N-(2-hydroxy-2-methylpropyl)-1H-pyrazole-5-carboxamide]	23.8
CCc1c(-c2ccc(C#N)cc2)nn(C(C)CC)c1C(=O)NCC(=O)NC (racemic) [Example 109, 1-sec-Butyl-3-(4-cyanophenyl)-4-ethyl-N-[2-(methylamino)-2-oxoethyl]-1H-pyrazole-5-carboxamide]	199

The remaining compounds from weak to strong by Ki, led by results:

Ki [nM]	SMILES
147	CCNC(=O)c1c(C)c(-c2ccc(C#N)cc2)nn1C1CCOC1 (single isomer, unassigned) [Example 76 Ent 2, 3-(4-Cyanophenyl)-N-ethyl-4-methyl-1-(tetrahydrofuran-3-yl)-1H-pyrazole-5-carboxamide]
63	CCc1c(-c2ccc(C#N)cc2)nn(C(C)CC)c1C(=O)NC[C@@H](C)O (mixture of isomers) [Example 107, 1-sec-Butyl-3-(4-cyanophenyl)-4-ethyl-N-[(2R)-2-hydroxypropyl]-1H-pyrazole-5-carboxamide]
40.8	CC(Cn1cccn1)NC(=O)c1c(C2CC2)c(-c2ccc(C#N)cc2)nn1C(C)C (racemic) [Example 44, (+/−)-3-(4-Cyanophenyl)-4-cyclopropyl-1-isopropyl-N-[1-methyl-2-(1H-pyrazol-1-yl)ethyl]-1H-pyrazole-5-carboxamide]
26.9	CCNC(=O)c1c(C)c(-c2ccc(C#N)cc2)nn1C1CCOC1 (racemic) [Example 76, 3-(4-Cyanophenyl)-N-ethyl-4-methyl-1-(tetrahydrofuran-3-yl)-1H-pyrazole-5-carboxamide]
25	CC(C)n1nc(-c2ccc(C#N)cc2)c(C2CC2)c1C(=O)NC1CCC(=O)N(C)C1 (racemic) [Example 41, (+/−)-3-(4-Cyanophenyl)-4-cyclopropyl-1-isopropyl-N-(1-methyl-6-oxopiperidin-3-yl)-1H-pyrazole-5-carboxamide]
22.3	CCNC(=O)c1c(C)c(-c2ccc(C#N)cc2)nn1C1CCOC1 (single isomer, unassigned) [Example 76 Ent 1, 3-(4-Cyanophenyl)-N-ethyl-4-methyl-1-(tetrahydrofuran-3-yl)-1H-pyrazole-5-carboxamide]
17.8	CC(NC(=O)c1c(C2CC2)c(-c2ccc(C#N)cc2)nn1C(C)C)c1cnn(C)c1 (racemic) [Example 39]
14.7	CCc1c(-c2ccc(C#N)cc2)nn(C(C)CC)c1C(=O)NC(C)C (racemic) [Example 102, (+/−)-1-sec-Butyl-3-(4-cyanophenyl)-4-ethyl-N-isopropyl-1H-pyrazole-5-carboxamide]
14.2	CCc1c(-c2ccc(C#N)cc2)nn(C(C)CC)c1C(=O)NC (racemic) [Example 105, (+/−)-1-sec-Butyl-3-(4-cyanophenyl)-4-ethyl-N-methyl-1H-pyrazole-5-carboxamide]
12.7	CCNC(=O)c1c(CC)c(-c2ccc(C#N)cc2)nn1C(C)CC (racemic) [Example 103, (+/−)-1-sec-Butyl-3-(4-cyanophenyl)-N,4-diethyl-1H-pyrazole-5-carboxamide]
12	CC(C)n1nc(-c2ccc(C#N)cc2)c(C2CC2)c1C(=O)NCC1CCCO1 (racemic) [Example 36, (+/−)-3-(4-Cyanophenyl)-4-cyclopropyl-1-isopropyl-N-(tetrahydrofuran-2-ylmethyl)-1H-pyrazole-5-carboxamide]
7.43	CC(C)n1nc(-c2ccc(C#N)cc2)c(C2CC2)c1C(=O)NC1CCS(=O)(=O)C1 (racemic) [Example 57, (+/−)-3-(4-Cyanophenyl)-4-cyclopropyl-N-(1,1-dioxidotetrahydro-3-thienyl)-1-isopropyl-1H-pyrazole-5-carboxamide]
